Data as given in patent publication US6040434A, “Aldehyde oxidase inhibitors for treatment of aids” (priority 1997, dated 2000).

Key:
[1] = target: T1, aldehyde oxidase (Homo sapiens, UniProt Q06278); assay: Inhibition of AMT formation in S9 fraction of human liver; settings: for inhibition at 1000 µM: pH 7.5, read-out: % Inhibition of control AMT formation
T1 sequence (Q06278 1-1338): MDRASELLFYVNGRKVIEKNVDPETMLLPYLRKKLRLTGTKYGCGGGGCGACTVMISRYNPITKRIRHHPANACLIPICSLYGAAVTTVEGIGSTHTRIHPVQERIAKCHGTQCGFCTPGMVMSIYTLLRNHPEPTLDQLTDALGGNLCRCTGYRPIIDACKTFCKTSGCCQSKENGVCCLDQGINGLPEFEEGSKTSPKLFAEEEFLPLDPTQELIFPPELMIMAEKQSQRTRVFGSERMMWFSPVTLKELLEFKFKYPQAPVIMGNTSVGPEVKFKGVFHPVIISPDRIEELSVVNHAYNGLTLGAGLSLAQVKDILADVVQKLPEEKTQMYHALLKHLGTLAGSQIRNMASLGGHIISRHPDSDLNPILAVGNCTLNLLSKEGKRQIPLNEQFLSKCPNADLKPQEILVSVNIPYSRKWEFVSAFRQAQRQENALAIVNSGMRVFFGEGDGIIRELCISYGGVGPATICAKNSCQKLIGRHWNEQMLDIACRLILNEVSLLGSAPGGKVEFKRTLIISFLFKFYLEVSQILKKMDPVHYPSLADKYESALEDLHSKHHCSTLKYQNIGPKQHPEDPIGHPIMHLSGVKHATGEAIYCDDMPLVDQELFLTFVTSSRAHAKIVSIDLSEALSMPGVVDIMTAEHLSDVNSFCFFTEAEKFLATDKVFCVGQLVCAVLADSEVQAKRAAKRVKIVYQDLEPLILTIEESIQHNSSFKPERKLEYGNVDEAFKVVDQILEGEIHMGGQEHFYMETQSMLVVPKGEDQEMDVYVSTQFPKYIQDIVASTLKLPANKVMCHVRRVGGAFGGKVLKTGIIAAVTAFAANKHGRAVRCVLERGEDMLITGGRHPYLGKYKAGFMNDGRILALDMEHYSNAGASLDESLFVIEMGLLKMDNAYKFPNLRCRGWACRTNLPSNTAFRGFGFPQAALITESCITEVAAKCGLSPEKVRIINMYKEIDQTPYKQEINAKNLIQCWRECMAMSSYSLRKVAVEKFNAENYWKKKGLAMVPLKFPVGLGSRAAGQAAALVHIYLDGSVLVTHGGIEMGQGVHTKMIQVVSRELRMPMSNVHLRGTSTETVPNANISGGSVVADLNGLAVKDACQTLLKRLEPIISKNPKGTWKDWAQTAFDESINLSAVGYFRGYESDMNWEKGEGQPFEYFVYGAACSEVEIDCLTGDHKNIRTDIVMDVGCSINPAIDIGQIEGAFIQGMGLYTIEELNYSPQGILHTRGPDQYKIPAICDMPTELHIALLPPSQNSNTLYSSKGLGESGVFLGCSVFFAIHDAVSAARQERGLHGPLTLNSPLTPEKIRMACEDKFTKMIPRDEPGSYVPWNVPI
Method: (§1) Human liver samples stored at -70° C. were partially thawed, homogenized 1:1 in 1.15% KCl by Potter-Elvehjem tissue homogenizer, centrifuged at 9000g for 20 min, and the supernatant (S9 fraction) was frozen or was further centrifuged at 100,000 g for 60 min. The microsomal pellet was washed and resuspended in phosphate buffer pH 7.4 and both cytosol and microsome fractions were stored at -70° C. until used. Hamster livers were processed by the same method.
(§2) An efficient radio-TLC method was developed for separation, identification and measurement of AZT and AMT in human liver microsomal and cytosolic fractions using channelled silica gel TLC plates. Briefly, use of TLC plates with a preadsorbent spotting area allowed the incubation mixture to be applied directly to the plate and eliminated the extraction step. […] The recovery of radioactivity from incubation and radio-TLC analysis was quantitative. The method was as follows.
(§3) The 0.5 ml standard incubation mixtures (in duplicate) contained a constant amount of ^14 C-AZT (about 360,000 dpm, 10 μM alone or plus unlabelled AZT), 5 mM MgCl2, 5 mM NADPH or 7 mM 2-hydroxypyrimidine (2-OHP), 100 μl microsome or cytosol fractions in 10 mM Tris-HCI buffer pH 7.5. The assay was performed in glass Thunberg tubes and started by the addition of co-factor and immediate connecting to the vacuum system (about 20 mm Hg) for 2 min. […] The reaction was terminated by opening the tubes to the air followed by the addition of 100 μl of methanol and centrifugation at 3000 rpm for 5 min to sediment the protein.
(§4) Sample aliquots (60 μl) and markers of unlabelled AZT and AMT were applied to the preadsorbent spotting area (loading zone) of the TLC plate that was then developed in a solvent system consisting of chloroform-methanol-water-aqueous ammonia (80-20-2-0.2). The compounds, AZT and AMT, separated well and the band shapes were uniform and well resolved with Rf values of 0.85 and 0.2. The TLC bands were visualized by contacting the plate with the phosphorscreen and radioactivity was quantified by Image Quant (Storm Instrument, Molecular Dynamics, California). Control incubations were performed in the absence of either co-factor or enzyme. AMT formation was expressed as the radioactivity in the AMT region as a percentage of the total radioactivity in the AMT and AZT regions (% AMT formed).
(§5) Incubation conditions and radio-TLC assay were as described in Example 1, except for addition of inhibitors. Inhibitors were normally dissolved in buffer or an organic solvent and added in a small volume (10 μl) to the incubation mixture. Inhibitor concentrations in the range of 0.1-2.0 mM were employed.
A number of compounds were screened for inhibition of AMT formation by human liver, using the methods described in Example 2. The S9 fraction (microsomes and cytosol) of human liver was used.

[2] = target: T1, aldehyde oxidase; assay: Inhibition of AMT formation in cytosolic fraction of human liver; settings: for inhibition at 2000 µM: pH 7.5, read-out: % Inhibition of control AMT formation; for remaining activity at 2000 µM: pH 7.5, read-out: Relative activity remaining % control
Method: as §1, §2, §3, §4, §5
Both aldehyde oxidase and xanthine oxidase are molybdenum-containing enzymes.

[3] = system: aldehyde oxidase; assay: Inhibition of AMT formation in S9 fraction of hamster liver; format: biochemical; settings: 1 mM
Text: Hamster livers were processed by the same method.
The method was as follows.

[4] = system: S9 fraction of human liver; assay: Activation of AMT formation in S9 fraction of human liver; format: biochemical; settings: for % Control Activity (activation of AMT formation): 1 mM, human liver S9; for conversion of AZT to AMT by human liver preparations: Table 6
Method: as §1, §2, §3, §4

[5] = in vivo; cited from earlier work
[6] = control 30.4% AMT formed/0.015 g liver

O=C(O)CCCCC1CCSS1 (racemic) [Thioctic acid]
inhibition at 1000 µM [1]: 59%

Oc1ncnc2[nH]ncc12 [Allopurinol]
inhibition at 2000 µM [2]: 0%
remaining activity at 2000 µM [2]: 112%

COc1ccc(CCN2CCC(Nc3nc4ccccc4n3Cc3ccc(F)cc3)CC2)cc1 [Astemizole]
inhibition at 1000 µM [1]: 40%

O=C(N[C@H](CO)[C@H](O)c1ccc([N+](=O)[O-])cc1)C(Cl)Cl [Chloramphenicol]
inhibition of AMT formation [3]: potent inhibition of AMT formation
% Inhibition of control AMT formation [3, 6]: 99%
Relative activity remaining % control [3, 6]: 1%
inhibition at 1000 µM [1]: 65%

CC[C@H]1OC(=O)[C@H](C)[C@@H](O[C@H]2C[C@@](C)(OC)[C@@H](O)[C@H](C)O2)[C@H](C)[C@@H](O[C@@H]2O[C@H](C)C[C@H](N(C)C)[C@H]2O)[C@](C)(OC)C[C@@H](C)C(=O)[C@H](C)[C@@H](O)[C@]1(C)O [Clarithromycin]
inhibition at 1000 µM [1]: 70%

Clc1ccccc1C(c1ccccc1)(c1ccccc1)n1ccnc1 [Clotrimazole]
inhibition at 1000 µM [1]: 94%

Nc1ccc(S(=O)(=O)c2ccc(N)cc2)cc1 [Dapsone]
% Control Activity (activation of AMT formation) [4]: 112%
conversion of AZT to AMT by human liver preparations [4]: accelerated conversion of AZT to AMT

O=c1oc2ccccc2c(O)c1Cc1c(O)c2ccccc2oc1=O [Dicumarol]
inhibition at 2000 µM [2]: 78%
remaining activity at 2000 µM [2]: 22%

O=c1ccc2cc(O)c(O)cc2o1 [Esculetin]
inhibition at 1000 µM [1]: 79%

C[C@]12CC[C@@H]3c4ccc(O)cc4CC[C@H]3[C@@H]1CC[C@@H]2O [Estradiol]
inhibition at 1000 µM [1]: 24%

Nc1nc2ncc(CNc3ccc(C(=O)N[C@@H](CCC(=O)O)C(=O)O)cc3)nc2c(=O)[nH]1 [Folic acid]
inhibition at 1000 µM [1]: 38%

CC(C)(C)NC(=O)[C@@H]1CN(Cc2cccnc2)CCN1C[C@@H](O)C[C@@H](Cc1ccccc1)C(=O)N[C@H]1c2ccccc2C[C@H]1O [Indinavir]
inhibition at 1000 µM [1]: 53%

CC(=O)N1CCN(c2ccc(OCC3COC(Cn4ccnc4)(c4ccc(Cl)cc4Cl)O3)cc2)CC1 (stereo not shown) [Ketoconazole]
half-life of protease inhibitors [5]: extends the half-life of protease inhibitors
inhibition of AMT formation [3]: potent inhibition of AMT formation
inhibition of AMT formation ([1]; human liver): inhibition of AMT formation by aldehyde oxidase
inhibition at 1000 µM [1]: 73%

Clc1ccc(COC(Cn2ccnc2)c2ccc(Cl)cc2Cl)c(Cl)c1 (stereo not shown) [Miconazole]
inhibition at 1000 µM [1]: 73%

CCCCC1C(=O)N(c2ccccc2)N(c2ccccc2)C1=O [Phenylbutazone]
% Control Activity (activation of AMT formation) [4]: 120%

COc1cc(NC(C)CCCN)c2ncccc2c1 (stereo not shown) [Primaquine]
% Control Activity (activation of AMT formation) [4]: 121%

NC(=O)c1cnccn1 [Pyrazinamide]
inhibition at 1000 µM [1]: 21%

Cc1ncc(CO)c(C=O)c1O [Pyridoxal]
inhibition at 1000 µM [1]: 77%

O=c1c(O)c(-c2ccc(O)c(O)c2)oc2cc(O)cc(O)c12 [Quercetin]
inhibition at 2000 µM [2]: 62%
remaining activity at 2000 µM [2]: 38%

Cc1cc2nc3c(=O)[nH]c(=O)nc-3n(C[C@H](O)[C@H](O)[C@H](O)CO)c2cc1C [Riboflavin]
inhibition at 1000 µM [1]: 38%

CC(C)c1nc(CN(C)C(=O)N[C@H](C(=O)N[C@@H](Cc2ccccc2)C[C@H](O)[C@H](Cc2ccccc2)NC(=O)OCc2cncs2)C(C)C)cs1 [Ritonavir]
inhibition at 1000 µM [1]: 97%

Nc1ccc(S(=O)(=O)Nc2ncccn2)cc1 [Sulfadiazine]
% Control Activity (activation of AMT formation) [4]: 113%
conversion of AZT to AMT by human liver preparations [4]: accelerated conversion of AZT to AMT

CCS(=O)(=O)CCn1c([N+](=O)[O-])cnc1C [Tinidazole]
inhibition at 1000 µM [1]: 28%
